Experimental data from patent publication US9539282B2, “Therapeutic use of hydrogen molecules” (MAX-PLANCK-GESELLSCHAFT ZUR FORDERUNG DER WISSENSCHAFTEN …, priority 2012, dated 2017).

Columns and labels:
[1] = standard conditions, worked out from 0.8 mmol and 2 g per mole
[2] = standard conditions (room temperature, standard air pressure); cited from earlier work

## [HH] [hydrogen]
[1]
  hydrogen per liter of water at maximum dissolution: about 1.6 mg per liter
[2]
  maximum concentration at which hydrogen dissolves in water: about 0.8 mmol
